Consider 13 molecules from PubChem BioAssay (NCI).

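These data come from cells grown in 96-well plates and exposed to compound for 48 hours at five concentrations. GI50 marks 50% less growth. TGI marks complete inhibition of growth.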

Some test systems named below: A498 renal; HOP-92 NSCLC; NCI-H460 lung; SK-OV-3 ovarian; HCT-15 colon; SK-MEL-2 melanoma; MOLT-4 leukemia; OVCAR-5 ovarian; IGROV1 ovarian; RXF 393 renal; SW-620 colon; MALME-3M melanoma.
Holding throughout (experiment): DTP human tumour cell line panel, 48 h

On to `COc1cc(C2(c3ncc[nH]3)SSSCC2O)ccc1O` (stereo unspecified), for which the TGI (commonly the concentration at which net growth stops) is more than 100 µM with A498 renal; 58.3 µM with HOP-92 NSCLC; more than 74.7 µM in the test on NCI-H460 lung; more than 100 µM with SK-OV-3 ovarian; more than 100 µM with HCT-15 colon; more than 100 µM with SK-MEL-2 melanoma. Besides, the TGI was more than 54.7 µM in the test with MOLT-4 leukemia; more than 100 µM in the test with OVCAR-5 ovarian; more than 100 µM with IGROV1 ovarian; 89.4 µM in the test with RXF 393 renal; more than 100 µM with SW-620 colon.

Consider `O=C(CSCC(=O)N/N=C\c1cccc([N+](=O)[O-])c1)N/N=C\c1cccc([N+](=O)[O-])c1`, for which the TGI with A498 renal is more than 100 µM; in the test on HOP-92 NSCLC, more than 100 µM; in the test with NCI-H460 lung it was more than 100 µM; in the test with SK-OV-3 ovarian it was more than 100 µM; in the test on HCT-15 colon, 67.8 µM; with SK-MEL-2 melanoma it was more than 100 µM. Moreover, the concentration for total growth inhibition (TGI) is more than 100 µM in the test with MOLT-4 leukemia; 69.1 µM in the test with MALME-3M melanoma; 68.7 µM in the test on IGROV1 ovarian; more than 100 µM with RXF 393 renal; more than 100 µM in the test on SW-620 colon.

Turning to `N[C@@H]1CCN(c2c(F)cc3c(=O)c(C(=O)O)cn4c3c2Oc2cc3c(ccc5ccccc53)cc2-4)C1`, the TGI is more than 44.8 µM in the test with A498 renal; 7.56 µM with HOP-92 NSCLC; 7.01 µM with NCI-H460 lung; more than 100 µM with HCT-15 colon; more than 78 µM with SK-MEL-2 melanoma; 23 µM with MALME-3M melanoma. Besides, the TGI with OVCAR-5 ovarian was 97 µM; in the test on IGROV1 ovarian, more than 100 µM; with RXF 393 renal, more than 100 µM; with SW-620 colon it was more than 100 µM. Also, the GI50 (commonly the concentration that inhibits growth by half) in the test on RXF 393 renal was 3.78 µM.

With `COc1nc(N)c(NC(C)=O)c(=O)n1C`, the TGI in the test with A498 renal, in the test with HOP-92 NSCLC, in the test with NCI-H460 lung, in the test on HCT-15 colon, in the test with SK-MEL-2 melanoma and in the test with MOLT-4 leukemia was more than 100 µM in each case. Further, the total growth inhibition concentration (TGI) with MALME-3M melanoma, with OVCAR-5 ovarian, with IGROV1 ovarian, with RXF 393 renal and in the test with SW-620 colon was more than 100 µM in each case.

For the molecule `Cc1ccc2c(=O)cc(-c3ccc4ccccc4c3)[nH]c2n1`, the TGI was 15.5 µM with A498 renal; 7.7 µM in the test on HOP-92 NSCLC; more than 100 µM in the test with NCI-H460 lung; more than 100 µM with SK-OV-3 ovarian; more than 100 µM with HCT-15 colon; more than 100 µM with SK-MEL-2 melanoma. For the same molecule, the TGI was 29.1 µM in the test on MOLT-4 leukemia; more than 100 µM in the test on MALME-3M melanoma; more than 100 µM in the test with OVCAR-5 ovarian; 82.7 µM in the test on IGROV1 ovarian; more than 100 µM with SW-620 colon. Besides, in the test on NCI-H460 lung, the GI50 is 3.82 µM.

Regarding `O=C(c1ccccc1)N1CCC(CC2(c3cc4ccccc4[nH]3)OCCO2)CC1`, the concentration for total growth inhibition (TGI) in the test on A498 renal was 62.8 µM; in the test with HOP-92 NSCLC, 93 µM; in the test on NCI-H460 lung it was more than 100 µM; in the test with SK-OV-3 ovarian it was more than 100 µM; in the test on HCT-15 colon, more than 100 µM; in the test with SK-MEL-2 melanoma, 73.6 µM. Moreover, the TGI with MOLT-4 leukemia is 58.1 µM; in the test with OVCAR-5 ovarian, more than 100 µM; in the test with IGROV1 ovarian, more than 100 µM; in the test with RXF 393 renal it was more than 100 µM; with SW-620 colon, more than 100 µM.

As for `O=C1/C(=C/c2ccccc2[N+](=O)[O-])N=C(c2ccccc2)N1c1nc2ccccc2s1`, the total growth inhibition concentration (TGI) was 72.1 µM in the test on A498 renal; 52.1 µM in the test with HOP-92 NSCLC; more than 100 µM with NCI-H460 lung; 56.8 µM in the test on HCT-15 colon; more than 100 µM in the test with SK-MEL-2 melanoma; 34.7 µM in the test on MOLT-4 leukemia. Besides, the TGI was more than 100 µM with OVCAR-5 ovarian, 33.7 µM with IGROV1 ovarian, 33.7 µM in the test on RXF 393 renal and more than 100 µM in the test on SW-620 colon.

As to `COc1ccc(OC)c2c1C=CC(Br)=CC2`, the concentration for total growth inhibition (TGI) with A498 renal is more than 1 µM; in the test with HOP-92 NSCLC, 0.463 µM; in the test on NCI-H460 lung, more than 1 µM; in the test with SK-OV-3 ovarian, 0.358 µM; in the test on HCT-15 colon, 0.485 µM; in the test with SK-MEL-2 melanoma, 0.247 µM. In addition, the concentration for total growth inhibition (TGI) is 0.478 µM in the test on MOLT-4 leukemia, 0.312 µM in the test on MALME-3M melanoma, more than 1 µM in the test on IGROV1 ovarian and more than 1 µM in the test on SW-620 colon.

As for `CCOC(=O)NC(Nc1ccc(F)cc1)(C(=O)OCC)C(F)(F)F` (stereo unspecified), the concentration for total growth inhibition (TGI) in the test on A498 renal, in the test with HOP-92 NSCLC, with NCI-H460 lung, in the test with SK-OV-3 ovarian, in the test with HCT-15 colon and with MOLT-4 leukemia was more than 100 µM in each case. The TGI in the test on MALME-3M melanoma, in the test with OVCAR-5 ovarian, in the test on IGROV1 ovarian, with RXF 393 renal and with SW-620 colon was more than 100 µM in each case.

On to `CC1C2C=C(O)C(=O)C(C2=O)C1c1ccccc1` (stereo unspecified), for which the TGI in the test with A498 renal, in the test on HOP-92 NSCLC, with SK-OV-3 ovarian, in the test with HCT-15 colon, with SK-MEL-2 melanoma and with MOLT-4 leukemia was more than 100 µM each time. The TGI in the test on MALME-3M melanoma, with OVCAR-5 ovarian, in the test on IGROV1 ovarian, in the test with RXF 393 renal and in the test with SW-620 colon was more than 100 µM each time.

For `Fc1ccc2c3c([nH]c2c1)CCN(Cc1ccccc1)C3`, the TGI in the test with A498 renal was 31.7 µM; in the test on HOP-92 NSCLC it was 18.7 µM; with NCI-H460 lung it was 33.1 µM; in the test on SK-OV-3 ovarian, 39.5 µM; in the test with HCT-15 colon, 36.5 µM; in the test with MOLT-4 leukemia, 42.5 µM. The TGI in the test with MALME-3M melanoma was 35 µM; in the test on OVCAR-5 ovarian it was 47.9 µM; in the test on IGROV1 ovarian, 42.5 µM; in the test on RXF 393 renal, 31 µM; in the test with SW-620 colon, 40 µM.

Turning to `Cc1ccc2c(=O)cc(-c3ccc(C)s3)[nH]c2n1`, the TGI in the test with A498 renal is more than 70.9 µM; in the test on HOP-92 NSCLC, more than 100 µM; in the test with NCI-H460 lung, more than 100 µM; in the test on SK-OV-3 ovarian it was more than 100 µM; with HCT-15 colon, more than 37.5 µM; in the test on SK-MEL-2 melanoma, more than 100 µM. Moreover, the TGI was more than 100 µM in the test with MOLT-4 leukemia, 53 µM with MALME-3M melanoma, more than 100 µM in the test with OVCAR-5 ovarian and more than 50.4 µM in the test with IGROV1 ovarian.

With `CN(C)N1C(=O)S/C(=C\c2ccc([N+](=O)[O-])cc2)C1=O`, the total growth inhibition concentration (TGI) in the test on A498 renal, in the test with HOP-92 NSCLC, with NCI-H460 lung, with SK-OV-3 ovarian, in the test with HCT-15 colon and with SK-MEL-2 melanoma was more than 100 µM throughout. The TGI in the test with MOLT-4 leukemia, in the test on MALME-3M melanoma, with OVCAR-5 ovarian, in the test on IGROV1 ovarian and in the test on RXF 393 renal was more than 100 µM in each case.
